The results in this text go back to publication PMC11040670, “Mechanistic and Kinetic Insights into Cellular Uptake of Biomimetic Dinitrosyl Iron Complexes and Intracellular Delivery of NO for Activation of Cytoprotective HO-1” (JACS Au, 2024).

What is called Log P is a log measure of how a compound divides between an organic and an aqueous phase.

Marks after values point to notes of the source that are not given here.

The subject of one series is deoxyMb. In words: Direct transfer of NO to deoxyMb yielding MbNO (UV–vis). The conditions noted are these: deoxyMb 5 μM/Cys 200 μM, generated [(NO)2Fe(SR)(SCys)]n−, phosphate buffer (pH 7.4), anaerobic. The series is classed as biochemical. As for the experimental part: After addition of 30 μL of 500 μM stock solution of DNIC–COOH (in DMSO) to a 4 mL quartz cuvette containing 5 μM metMb and 200 μM Cys in 3 mL of 25 mM PBS (pH 7.4), UV–vis spectra for this mixture solution were measured every 30 min. Transformation of […] into MbNO was achieved after reaction for 4 h based on the complete shift of UV–vis absorption bands from (410, 502, and 629) nm to (419, 548, and 578) nm.
Reactions of (a) 5 μM of DNIC–COOMe with 5 μM of metMb in the presence of 200 μM of Cys, (b) 5 μM of DNIC–COOH/DNIC–COOMe with 5 μM of deoxyMb in the presence of 200 μM of Cys, and (c) 5 μM of DNIC–COOH/DNIC–COOMe with 5 μM of metMb in the presence of 50 mg/mL BSA were performed under a similar manner.

In another series the test system is N2a. In words: Whole-cell EPR: cellular uptake and intracellular formation/decomposition of mononuclear DNIC in N2a. The series is classed as cell-based, mouse. The conditions noted are these: for tmax for cellular uptake and intracellular transformation (whole-cell EPR): normoxia, 100 μM DNIC–COOH or 10 μM DNIC–COOMe. Here is the method:
Cellular uptake of DNIC–COOH and intracellular formation/decomposition of mononuclear DNICs in MSC/N2a/HCEC cells were investigated using EPR spectroscopy. Briefly, cells were seeded into two (or one) 100 mm dish(es) at a density of 2 × 10^6 cells/dish and incubated at 37 °C overnight. On the next day, cells were treated with 100 μM of DNIC–COOH (or 100 μM of DNIC–COOH to N2a and 75 μM of DNIC–COOH to HCEC) and incubated for 0, 0.5, 1, 2, 3, 4, 8, and 24 h, respectively. After removal of the supernatant solution, cells were washed with DPBS before addition of 1 mL of trypsin (0.05%)/EDTA (0.53 mM) and incubation for 5 min at 37 °C. After the obtained cell suspension solutions from two 100 mm dishes were combined and centrifuged at 100g for 5 min, the supernatant was removed before addition of 100 μL of αMEM to DNIC-treated MSC (or MEM to DNIC-treated N2a and HSFM to DNIC-treated HCEC). This solution was then transferred into EPR quartz tube and frozen in N2(l) before the EPR measurements. For each measured EPR spectrum, double integration was executed to obtain the integrated EPR intensity under each condition. Moreover, time-dependent decay of integrated EPR signal intensity after treatment of DNIC–COOH was fit to pseudo-first-order kinetics in order to determine the intracellular half-life for EPR-active mononuclear DNIC. Three independent experiments were executed to measure the average half-life for intracellular decomposition of EPR-active mononuclear DNIC after treatment with DNIC–COOH at 37 °C. On the other hand, at the time point with maximum integrated EPR signal intensity, spin quantitation of intracellular EPR-active DNICs was performed using mononuclear DNIC [PPN][(NO)2Fe(S5)] as a standard according to the methodology used in the previous work.[50] Cellular uptake of DNIC–COOMe (2.5 μM to MSC, 10 μM to N2a, or 1 μM to HCEC) and intracellular formation/decomposition of EPR-active mononuclear DNICs were investigated using EPR spectroscopy in a similar manner.
Studies of cellular uptake mechanisms were investigated using EPR spectroscopy in combination with pretreatments of alternative inhibitors. After the MSC cells were seeded into two (or one) 100 mm dish(es) at a density of 2 × 10^6 cells/dish and incubated at 37 °C overnight, sequential treatments of 50 μM of NEM for 0.5 h and 100 μM of DNIC–COOH for 2 h were performed before the treated MSC cells were collected for EPR measurement following the procedure described above. […]

In the next series the test system is HMOX1 gene. The series is described as follows: Real-time PCR of HMOX1 gene in MSC. It is filed as cell-based, human. The conditions noted are these: at 3 h, 100 μM DNIC–COOH or 2.5 μM DNIC–COOMe. Here is the method:
After treatment of (1) 100 μM of DNIC–COOH to MSC, (2) 100 μM of DNIC–COOH to N2a, (3) 75 μM of DNIC–COOH to HCEC, (4) 2.5 μM of DNIC–COOMe to MSC, (5) 10 μM of DNIC–COOMe to N2a, and (6) 1 μM of DNIC–COOMe to HCEC, respectively, the total RNA of the treated cells was extracted using TRIzol Reagent (Thermo Fisher Scientific) in order to assess the time-dependent change in the mRNA level of HO-1. After the synthesis of complementary DNA with the High-Capacity Reverse Transcription Kit, qPCR was conducted using Power SYBR Green PCR Master Mix with the StepOnePlus Real-Time PCR System (Thermo Fisher Scientific). […] The relative mRNA levels of target genes were determined by a comparative threshold cycle method and normalized to that of RPL13A (or GAPDH). The mRNA level of HO-1 in the MSC, N2a, and HCEC cells, respectively, that received the (1) sequential treatments of 1H-[1,2,4]oxadiazolo-[4,3-a]quinoxalin-1-one (ODQ, 10 μM for 1 h) and DNIC–COOH (100 μM in MSC for 3 h, 100 μM in N2a for 10 h, and 75 μM in HCEC for 6 h) or (2) cotreatment of 2-phenyl-4,4,5,5-tetramethylimidazoline-1-oxyl-3-oxide (PTIO, 100 μM in MSC, 200 μM in N2a, and 100 μM in HCEC) and DNIC–COOH (100 μM in MSC for 3 h, 100 μM in N2a for 10 h, and 75 μM in HCEC for 6 h) was also evaluated under a similar procedure.
A general note: Quantitative PCR measures a nucleic acid by following its amplification.

Series [1] can be described thus: Log D7.4 / Log P by n-octanol partitioning (UV–vis). The series is classed as physicochemical. The settings on record: for Log D7.4: PBS (pH 7.4)/n-octanol. As for the experimental part:
PBS (pH 7.4) and n-octanol were fully degassed before use. After adding 20 μL of 100 mM stock solution of DNIC–COOH in DMSO to 19.98 mL of PBS (pH 7.4), 2 mL of this 100 μM DNIC–COOH solution was added with 2 mL of n-octanol. This mixture solution was vortexed thoroughly for 30 s and incubated until the two solutions were separated. UV–vis spectra of DNIC–COOH in PBS (pH 7.4) and n-octanol were measured in order to determine Log D7.4 using the equation shown below:[96] [drawing 1] AO is the A362 in n-octanol, and APBS is the A362 in PBS (pH 7.4) after partitioning. Log D7.4 for DNIC–COOMe was determined in a similar manner. On the other hand, the Log P value for DNIC–COOH was measured based on its distribution in ddH2O and n-octanol using a similar procedure.[97],[98]

For `O=[N][Fe]1([N]=O)[SH](CCC(=O)O)[Fe]([N]=O)([N]=O)[SH]1CCC(=O)O` (stereo not drawn) [DNIC–COOH, [(NO)2Fe(μ-SCH2CH2COOH)2Fe(NO)2]], the “reaction time for complete conversion of deoxyMb into MbNO” value is listed as 3.5 ^f h in the series on deoxyMb and 3.5 h in the series on deoxyMb (listed as DNIC-COOH). Besides, the entries for the “relative whole-cell EPR signal intensity at gav = 2.03 (control = 100%)” value in the series with N2a (CPZ-treated N2a) and in the series on N2a (MβCD-treated N2a) were 77.6 ± 22.5% and 81.7 ± 18.2%, respectively. In the series on N2a (N2a), the “tmax for cellular uptake and intracellular transformation (whole-cell EPR)” value came to 2 h. In the series on HMOX1 gene, the “activation of HMOX1 gene” value is reported as 49.5 ± 2.9 fold. In addition, in series [1], the “Log D7.4” value is given as −2.3. Besides, in series [1] (ddH2O/n-octanol), the log partition coefficient (Log P) came to 1.2.
Turning to `COC(=O)CC[SH]1[Fe]([N]=O)([N]=O)[SH](CCC(=O)OC)[Fe]1([N]=O)[N]=O` (stereo not drawn) [DNIC–COOMe, [(NO)2Fe(μ-SCH2CH2COOCH3)2Fe(NO)2]], the “reaction time for complete conversion of deoxyMb into MbNO” value is reported as 2.0 ^f h with deoxyMb and 2.0 h with deoxyMb (listed as DNIC-COOMe). The “relative whole-cell EPR signal intensity at gav = 2.03 (control = 100%)” value came out at 116.2 ± 33.6% with N2a (N2a, native FBS replaced with 5% NEM-treated FBS) and 20.1 ± 9.7% with N2a (N2a, pretreatment of NEM 0.5 h, then DNIC–COOMe 0.5 h, reduction). Besides, the “tmax for cellular uptake and intracellular transformation (whole-cell EPR)” value in the series with N2a (N2a) stood at 0.5 h. Further, the “activation of HMOX1 gene” value in the series on HMOX1 gene is recorded as 18.8 ± 2.3 fold. In series [1], the “Log D7.4” value is on record as 1.0.
